Measurements published in doi:10.1101/2025.01.30.635686v1 (biorxiv, 2025).

Target: T1, YME1LAAA (monomeric AAA+ domain) (Homo sapiens, UniProt Q96TA2)
T1 sequence (Q96TA2 317-588): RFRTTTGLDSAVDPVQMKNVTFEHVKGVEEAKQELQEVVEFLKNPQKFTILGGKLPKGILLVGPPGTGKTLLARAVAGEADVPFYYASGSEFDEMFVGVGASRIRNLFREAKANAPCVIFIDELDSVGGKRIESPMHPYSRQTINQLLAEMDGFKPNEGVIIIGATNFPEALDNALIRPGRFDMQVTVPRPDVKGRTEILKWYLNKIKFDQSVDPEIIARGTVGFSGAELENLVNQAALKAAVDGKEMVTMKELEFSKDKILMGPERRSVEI
Experiment: methyl-TROSY NMR titration
Type: binding

Kd: 4.6 ± 2.3 µM
SMILES: Nc1ncnc2c1ncn2[C@@H]1O[C@H](COP(=O)(O)OP(=O)(O)O)[C@@H](O)[C@H]1O [ADP]
